Results on 31 compounds are retold here after patent US20240158370A1, “CK1 alpha AND DUAL CK1 alpha / GSPT1 DEGRADING COMPOUNDS” (Innovo Therapeutics, Inc., priority 2022, published 2024).

One test addresses T1, CK1α (Homo sapiens, UniProt P48729+Q96SW2).
T1 construct: CSNK1A1-HiBit KI HEK293(LgBit) Cells; host or cells: HEK293(LgBit) knock-in cells
In words: HiBiT degradation assay, CK1α, Procedure A. Format: cell-based. Particulars: six hours. The gist of the method: (§1)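 10-pt dose response, 10–0.005 μM, 0.1% DMSO; cells 1×10^6/ml in DMEM/10% FBS, 6 h, 37° C; HiBiT lytic detection, luminescence; DC50 + Ymin by 4-parameter fit.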
Background: With HiBiT, luminescence reflects the tagged protein that the partner subunit can reach.

The next test has as its target GSPT1 (Homo sapiens, UniProt P15170+Q96SW2). The experiment in a line: HiBiT degradation assay, GSPT1, Procedure A. Format: cell-based. On the set-up: HiBit-GSPT1 KI HEK293(LgBit) Cells; host or cells: HEK293(LgBit) knock-in cells. Particulars: six hours. The gist of the method: as §1

Sequence of GSPT1 (P15170 whole entry): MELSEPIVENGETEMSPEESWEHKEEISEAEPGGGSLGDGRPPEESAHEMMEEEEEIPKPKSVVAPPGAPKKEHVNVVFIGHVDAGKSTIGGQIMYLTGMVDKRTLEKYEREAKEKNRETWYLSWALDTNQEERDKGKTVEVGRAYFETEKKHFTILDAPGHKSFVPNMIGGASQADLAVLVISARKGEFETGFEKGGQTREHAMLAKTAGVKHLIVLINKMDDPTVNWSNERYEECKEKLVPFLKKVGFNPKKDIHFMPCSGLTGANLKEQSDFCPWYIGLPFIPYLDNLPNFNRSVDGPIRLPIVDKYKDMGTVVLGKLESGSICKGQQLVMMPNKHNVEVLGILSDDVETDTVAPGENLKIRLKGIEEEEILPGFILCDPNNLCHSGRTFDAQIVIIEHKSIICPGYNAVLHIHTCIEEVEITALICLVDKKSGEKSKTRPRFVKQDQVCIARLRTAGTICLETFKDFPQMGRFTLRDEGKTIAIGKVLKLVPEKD
Sequence of GSPT1 (Q96SW2 whole entry): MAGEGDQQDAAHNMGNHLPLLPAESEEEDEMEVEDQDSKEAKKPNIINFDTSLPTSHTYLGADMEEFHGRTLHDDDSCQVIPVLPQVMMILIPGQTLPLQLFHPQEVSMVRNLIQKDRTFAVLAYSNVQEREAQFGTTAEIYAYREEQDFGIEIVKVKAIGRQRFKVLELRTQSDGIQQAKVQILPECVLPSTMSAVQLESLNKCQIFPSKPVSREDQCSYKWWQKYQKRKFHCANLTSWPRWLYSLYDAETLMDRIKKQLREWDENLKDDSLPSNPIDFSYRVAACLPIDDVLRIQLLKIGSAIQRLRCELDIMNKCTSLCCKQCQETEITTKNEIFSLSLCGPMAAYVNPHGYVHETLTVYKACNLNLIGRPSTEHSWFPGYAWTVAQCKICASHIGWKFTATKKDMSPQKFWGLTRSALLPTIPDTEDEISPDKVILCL
Sequence of GSPT1 (Q16531 whole entry partner): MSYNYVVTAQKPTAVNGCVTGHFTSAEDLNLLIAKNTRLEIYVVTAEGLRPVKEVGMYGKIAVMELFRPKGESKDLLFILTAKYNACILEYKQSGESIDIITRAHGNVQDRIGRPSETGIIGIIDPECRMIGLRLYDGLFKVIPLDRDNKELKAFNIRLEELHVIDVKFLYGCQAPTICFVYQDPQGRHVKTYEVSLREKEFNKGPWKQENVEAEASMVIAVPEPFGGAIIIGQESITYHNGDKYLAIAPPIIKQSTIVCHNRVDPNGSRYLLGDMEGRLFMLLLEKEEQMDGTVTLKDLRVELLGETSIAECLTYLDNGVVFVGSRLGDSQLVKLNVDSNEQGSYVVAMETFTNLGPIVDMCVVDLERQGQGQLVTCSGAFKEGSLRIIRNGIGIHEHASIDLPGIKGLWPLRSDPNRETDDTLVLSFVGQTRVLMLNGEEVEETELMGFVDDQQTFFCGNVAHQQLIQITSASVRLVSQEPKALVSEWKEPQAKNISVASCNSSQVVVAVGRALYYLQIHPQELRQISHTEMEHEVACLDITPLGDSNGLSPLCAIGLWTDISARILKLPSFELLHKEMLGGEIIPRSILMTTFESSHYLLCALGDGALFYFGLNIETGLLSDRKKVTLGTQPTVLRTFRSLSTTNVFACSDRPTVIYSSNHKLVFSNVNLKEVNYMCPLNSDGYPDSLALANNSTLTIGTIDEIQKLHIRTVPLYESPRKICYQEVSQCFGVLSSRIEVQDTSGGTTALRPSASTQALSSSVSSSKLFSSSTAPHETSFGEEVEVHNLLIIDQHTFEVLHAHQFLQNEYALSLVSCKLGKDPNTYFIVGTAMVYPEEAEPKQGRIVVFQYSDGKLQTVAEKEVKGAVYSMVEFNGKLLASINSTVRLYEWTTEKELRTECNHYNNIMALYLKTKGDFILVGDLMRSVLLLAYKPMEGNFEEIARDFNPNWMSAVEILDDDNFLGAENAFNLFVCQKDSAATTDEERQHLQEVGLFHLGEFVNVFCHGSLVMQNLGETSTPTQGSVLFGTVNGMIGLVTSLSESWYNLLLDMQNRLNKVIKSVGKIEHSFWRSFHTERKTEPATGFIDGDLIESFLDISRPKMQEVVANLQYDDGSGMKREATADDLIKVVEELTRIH
T1 sequence (P48729 whole entry): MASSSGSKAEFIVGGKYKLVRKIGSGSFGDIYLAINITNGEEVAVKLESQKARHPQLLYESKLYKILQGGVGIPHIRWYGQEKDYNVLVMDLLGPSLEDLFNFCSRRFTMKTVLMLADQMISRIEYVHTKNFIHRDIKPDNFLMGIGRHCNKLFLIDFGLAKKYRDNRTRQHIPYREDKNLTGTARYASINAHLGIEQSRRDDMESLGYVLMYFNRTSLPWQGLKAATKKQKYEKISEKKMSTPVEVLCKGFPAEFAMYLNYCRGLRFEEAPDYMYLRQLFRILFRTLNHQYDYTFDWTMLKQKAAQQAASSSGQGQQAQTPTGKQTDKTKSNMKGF
T1 sequence (Q96SW2 whole entry): as the sequence (Q96SW2 whole entry) above
T1 sequence (Q16531 whole entry partner): as the sequence (Q16531 whole entry partner) above

Consider `Cc1oncc1-c1c(-c2ccc3c(c2)CN(C2CCC(=O)NC2=O)C3=O)cnn1C` (stereo not drawn) [Example 452], for which, at CK1α, the “CK1α Ymin” value was “E (E = >25-75% remaining)” and the DC50 is < 25 nM. On GSPT1, the 50% degradation concentration (DC50) was ≥ 25 nM and the “GSPT1 Ymin” value is reported as “F (F = >75-100% remaining)”.

As for `Cn1ncc(-c2ccc3c(c2)CN(C2CCC(=O)NC2=O)C3=O)c1-c1cccnc1N` (stereo not drawn) [Example 453], on CK1α, the “CK1α Ymin” value is “E (E = >25-75% remaining)” and the DC50 was < 25 nM. Besides, on GSPT1, the DC50 was ≥ 25 nM and the “GSPT1 Ymin” value is “F (F = >75-100% remaining)”.

As for `Cc1cc(-c2c(-c3ccc4c(c3)CN(C3CCC(=O)NC3=O)C4=O)cnn2C)n(C)n1` (stereo not drawn) [Example 454], on CK1α, the “CK1α Ymin” value is listed as “F (F = >75-100% remaining)” and the DC50 was ≥ 25 nM. In addition, at GSPT1, the DC50 was ≥ 25 nM and the “GSPT1 Ymin” value is given as “F (F = >75-100% remaining)”.

For the compound `Cn1ncc(-c2ccc3c(c2)CN(C2CCC(=O)NC2=O)C3=O)c1-c1cccc(C#N)n1` (stereo not drawn) [Example 455], on CK1α, the “CK1α Ymin” value is “E (E = >25-75% remaining)” and the DC50 was ≥ 25 nM. Moreover, on GSPT1, the DC50 is ≥ 25 nM and the “GSPT1 Ymin” value is recorded as “F (F = >75-100% remaining)”.

Regarding `COc1cncc(-c2c(-c3ccc4c(c3)CN(C3CCC(=O)NC3=O)C4=O)cnn2C)c1` (stereo not drawn) [Example 456], at CK1α, the “CK1α Ymin” value was “E (E = >25-75% remaining)” and the DC50 was ≥ 25 nM. Besides, on GSPT1, the DC50 was ≥ 25 nM and the “GSPT1 Ymin” value was “F (F = >75-100% remaining)”.

As to `Cn1ncc(-c2ccc3c(c2)CN(C2CCC(=O)NC2=O)C3=O)c1-c1ccn(C)c(=O)c1` (stereo not drawn) [Example 457], at CK1α, the “CK1α Ymin” value was “E (E = >25-75% remaining)” and the DC50 is ≥ 25 nM. On GSPT1, the DC50 is ≥ 25 nM and the “GSPT1 Ymin” value is “F (F = >75-100% remaining)”.

With `COc1ccncc1-c1c(-c2ccc3c(c2)CN(C2CCC(=O)NC2=O)C3=O)cnn1C` (stereo not drawn) [Example 458], on CK1α, the “CK1α Ymin” value is recorded as “F (F = >75-100% remaining)” and the DC50 was < 25 nM. At GSPT1, the DC50 is < 25 nM and the “GSPT1 Ymin” value is listed as “F (F = >75-100% remaining)”.

`Cn1ncc(-c2ccc3c(c2)CN(C2CCC(=O)NC2=O)C3=O)c1-c1ccc(=O)n(C)c1` (stereo not drawn) [Example 459]: on CK1α, the “CK1α Ymin” value is recorded as “E (E = >25-75% remaining)” and the DC50 was < 25 nM. Also, at GSPT1, the DC50 was ≥ 25 nM and the “GSPT1 Ymin” value is “F (F = >75-100% remaining)”.

With `Cn1ncc(-c2ccc3c(c2)CN(C2CCC(=O)NC2=O)C3=O)c1-c1ccc2nc[nH]c2c1` (stereo not drawn) [Example 460], at CK1α, the “CK1α Ymin” value is “D (D = >10- 25% remaining)” and the DC50 was ≥ 25 nM. Further, on GSPT1, the DC50 was ≥ 25 nM and the “GSPT1 Ymin” value is “F (F = >75-100% remaining)”.

In the case of `Cn1ncc(-c2ccc3c(c2)CN(C2CCC(=O)NC2=O)C3=O)c1-c1ccc2cncn2c1` (stereo not drawn) [Example 461], on CK1α, the “CK1α Ymin” value is reported as “C (C = 0-10% remaining)” and the DC50 was ≥ 25 nM. Moreover, on GSPT1, the DC50 was ≥ 25 nM and the “GSPT1 Ymin” value is given as “F (F = >75-100% remaining)”.

For the compound `Cn1ncc(-c2ccc3c(c2)CN(C2CCC(=O)NC2=O)C3=O)c1-c1ccc2nccnc2c1` (stereo not drawn) [Example 462], at CK1α, the “CK1α Ymin” value is on record as “E (E = >25-75% remaining)” and the DC50 was ≥ 25 nM. At GSPT1, the DC50 is ≥ 25 nM and the “GSPT1 Ymin” value was “F (F = >75-100% remaining)”.

In the case of `Cn1ncc(-c2ccc3c(c2)CN(C2CCC(=O)NC2=O)C3=O)c1-c1ccc2ncn(C)c2c1` (stereo not drawn) [Example 463], on CK1α, the “CK1α Ymin” value was “D (D = >10- 25% remaining)” and the DC50 is ≥ 25 nM. Also, on GSPT1, the DC50 is ≥ 25 nM and the “GSPT1 Ymin” value is reported as “F (F = >75-100% remaining)”.

With `Cn1ncc(-c2ccc3c(c2)CN(C2CCC(=O)NC2=O)C3=O)c1-c1cnn(Cc2cccnc2)c1` (stereo not drawn) [Example 464], on CK1α, the “CK1α Ymin” value is on record as “F (F = >75-100% remaining)” and the DC50 is ≥ 25 nM. At GSPT1, the DC50 is ≥ 25 nM and the “GSPT1 Ymin” value is listed as “F (F = >75-100% remaining)”.

With `Cn1ncc(-c2ccc3c(c2)CN(C2CCC(=O)NC2=O)C3=O)c1-c1ccc(N2CCCCC2)nc1` (stereo not drawn) [Example 465], at CK1α, the “CK1α Ymin” value is reported as “E (E = >25-75% remaining)” and the DC50 was ≥ 25 nM. For the same compound, at GSPT1, the DC50 was ≥ 25 nM and the “GSPT1 Ymin” value is reported as “F (F = >75-100% remaining)”.

Consider `Cn1ncc(-c2ccc3c(c2)CN(C2CCC(=O)NC2=O)C3=O)c1-c1ccc(N2CCOCC2)nc1` (stereo not drawn) [Example 466], for which, at CK1α, the “CK1α Ymin” value is on record as “F (F = >75-100% remaining)” and the DC50 is < 25 nM. On GSPT1, the DC50 was ≥ 25 nM and the “GSPT1 Ymin” value is recorded as “F (F = >75-100% remaining)”.

In the case of `Cn1ncc(-c2ccc3c(c2)CN(C2CCC(=O)NC2=O)C3=O)c1-c1cncc(OCc2ccccc2)c1` (stereo not drawn) [Example 467], at CK1α, the “CK1α Ymin” value was “F (F = >75-100% remaining)” and the DC50 was ≥ 25 nM. The DC50 on GSPT1 was ≥ 25 nM.

For `Cn1ncc(-c2ccc3c(c2)CN(C2CCC(=O)NC2=O)C3=O)c1-c1cn[nH]c1` (stereo not drawn) [Example 468], on CK1α, the “CK1α Ymin” value was “E (E = >25-75% remaining)” and the DC50 was ≥ 25 nM. Moreover, on GSPT1, the DC50 was ≥ 25 nM and the “GSPT1 Ymin” value is reported as “F (F = >75-100% remaining)”.

As for `Cn1ncc(-c2ccc3c(c2)CN(C2CCC(=O)NC2=O)C3=O)c1-c1cc[nH]n1` (stereo not drawn) [Example 469], at CK1α, the “CK1α Ymin” value is “D (D = >10- 25% remaining)” and the DC50 was ≥ 25 nM. Besides, at GSPT1, the DC50 is ≥ 25 nM and the “GSPT1 Ymin” value is recorded as “F (F = >75-100% remaining)”.

With `Cn1ccc(-c2c(-c3ccc4c(c3)CN(C3CCC(=O)NC3=O)C4=O)cnn2C)n1` (stereo not drawn) [Example 470], on CK1α, the “CK1α Ymin” value is reported as “E (E = >25-75% remaining)” and the DC50 is ≥ 25 nM. In addition, on GSPT1, the DC50 is ≥ 25 nM and the “GSPT1 Ymin” value was “F (F = >75-100% remaining)”.

For the compound `Cn1ncc(-c2ccc3c(c2)CN(C2CCC(=O)NC2=O)C3=O)c1-c1cccs1` (stereo not drawn) [Example 471], on CK1α, the “CK1α Ymin” value is given as “C (C = 0-10% remaining)” and the DC50 was < 25 nM. Further, at GSPT1, the DC50 was ≥ 25 nM and the “GSPT1 Ymin” value is on record as “F (F = >75-100% remaining)”.

As to `Cc1ncccc1-c1c(-c2ccc3c(c2)CN(C2CCC(=O)NC2=O)C3=O)cnn1C` (stereo not drawn) [Example 472], on CK1α, the “CK1α Ymin” value is recorded as “E (E = >25-75% remaining)” and the DC50 was < 25 nM. In addition, on GSPT1, the half-maximal degradation concentration (DC50) was ≥ 25 nM and the “GSPT1 Ymin” value was “F (F = >75-100% remaining)”.

For the compound `COc1ccsc1-c1c(-c2ccc3c(c2)CN(C2CCC(=O)NC2=O)C3=O)cnn1C` (stereo not drawn) [Example 473], on CK1α, the “CK1α Ymin” value is given as “E (E = >25-75% remaining)” and the DC50 was < 25 nM. At GSPT1, the DC50 is ≥ 25 nM and the “GSPT1 Ymin” value is reported as “F (F = >75-100% remaining)”.

For `Cn1ncc(-c2ccc3c(c2)CN(C2CCC(=O)NC2=O)C3=O)c1-c1c[nH]c2ccccc12` (stereo not drawn) [Example 474], on CK1α, the “CK1α Ymin” value is “D (D = >10- 25% remaining)” and the DC50 is < 25 nM. On GSPT1, the DC50 is ≥ 25 nM and the “GSPT1 Ymin” value is listed as “F (F = >75-100% remaining)”.

Consider `Cn1ncc(-c2ccc3c(c2)CN(C2CCC(=O)NC2=O)C3=O)c1-c1cnn(C2CCC2)c1` (stereo not drawn) [Example 475], for which, on CK1α, the “CK1α Ymin” value is listed as “E (E = >25-75% remaining)” and the DC50 is ≥ 25 nM. In addition, on GSPT1, the DC50 is < 25 nM and the “GSPT1 Ymin” value is recorded as “F (F = >75-100% remaining)”.

In the case of `Cn1ncc(-c2ccc3c(c2)CN(C2CCC(=O)NC2=O)C3=O)c1-c1ccc2c(c1)ncn2C` (stereo not drawn) [Example 476], at CK1α, the “CK1α Ymin” value is listed as “D (D = >10- 25% remaining)” and the DC50 was ≥ 25 nM. On GSPT1, the DC50 is ≥ 25 nM and the “GSPT1 Ymin” value is “F (F = >75-100% remaining)”.

As to `Cn1ncc(-c2ccc3c(c2)CN(C2CCC(=O)NC2=O)C3=O)c1-c1ccc2c(c1)CCCO2` (stereo not drawn) [Example 477], at CK1α, the “CK1α Ymin” value was “C (C = 0-10% remaining)” and the DC50 is < 25 nM. In addition, on GSPT1, the DC50 was ≥ 25 nM and the “GSPT1 Ymin” value is “F (F = >75-100% remaining)”.

As for `Cn1ncc(-c2ccc3c(c2)CN(C2CCC(=O)NC2=O)C3=O)c1-c1ccc2sccc2c1` (stereo not drawn) [Example 478], on CK1α, the “CK1α Ymin” value is on record as “D (D = >10- 25% remaining)” and the 50% degradation concentration (DC50) is < 25 nM. Also, at GSPT1, the DC50 was ≥ 25 nM and the “GSPT1 Ymin” value is “F (F = >75-100% remaining)”.

For the compound `Cn1ncc(-c2ccc3c(c2)CN(C2CCC(=O)NC2=O)C3=O)c1-c1cccc(-n2cccn2)c1` (stereo not drawn) [Example 479], at CK1α, the “CK1α Ymin” value is “E (E = >25-75% remaining)” and the DC50 was < 25 nM. Further, at GSPT1, the DC50 is ≥ 25 nM and the “GSPT1 Ymin” value is “F (F = >75-100% remaining)”.

Regarding `Cn1ncc(-c2ccc3c(c2)CN(C2CCC(=O)NC2=O)C3=O)c1-c1cnn(Cc2ccccc2)c1` (stereo not drawn) [Example 480], on CK1α, the “CK1α Ymin” value is given as “E (E = >25-75% remaining)” and the 50% degradation concentration (DC50) is ≥ 25 nM. Further, on GSPT1, the DC50 was ≥ 25 nM and the “GSPT1 Ymin” value was “F (F = >75-100% remaining)”.

Regarding `Cc1c(-c2c(-c3ccc4c(c3)CN(C3CCC(=O)NC3=O)C4=O)cnn2C)cnn1-c1ccccc1` (stereo not drawn) [Example 481], at CK1α, the “CK1α Ymin” value is listed as “E (E = >25-75% remaining)” and the DC50 was ≥ 25 nM. For the same compound, at GSPT1, the DC50 is < 25 nM and the “GSPT1 Ymin” value is given as “F (F = >75-100% remaining)”.

On to `Cn1cnc(-c2ccc3c(c2)CN(C2CCC(=O)NC2=O)C3=O)c1-c1cccnc1` (stereo not drawn) [Example 482], for which, at CK1α, the “CK1α Ymin” value is listed as “D (D = >10- 25% remaining)” and the DC50 was < 25 nM. At GSPT1, the DC50 was < 25 nM and the “GSPT1 Ymin” value is “E (E = >25-75% remaining)”.

By DC50 is commonly meant the concentration giving 50% degradation. Low readings indicate a more potent degrader, high ones a less potent degrader.
